In assay [1] the test system is advanced alveolar pyorrhea. The assay can be described thus: Test Example 1: injection into the periodontal pocket of a patient with advanced alveolar pyorrhea, with gingival massage. It counts as in vivo, human. The conditions noted are these: buffered saline (pH 7.0) containing 2.5% by weight, 0.8 ml into periodontal pocket, gingiva massaged, twice a day for two weeks; one patient. Here is the method:
Buffered saline (pH 7.0) containing 2.5% by weight of N-acetylhydroxyproline (0.8 ml) was injected into the periodontal pocket of a patient with advanced alveolar pyorrhea and the gingiva was lightly massaged.

Another assay deals with alveolar pyorrhea. The assay can be described thus: Test Example 2: injection into the periodontal pocket of a patient with alveolar pyorrhea (big periodontal pocket, loose tooth), then continued toothbrushing. It counts as in vivo, human. Here is the method: This treatment was carried out after toothbrushing three times a day for two weeks. […] Thereafter, toothbrusing was continuously carried out using a very fine toothbrush with buffered saline (pH 7.0) containing 2.5% by weight of N-acetylhydroxyproline on it with massage of the gingiva and the inside of the periodontal pocket. This toothbrusing was carried out for more than three minutes three times a day.

The mark [2] stands for this setting: buffered saline (pH 7.0) containing 2.5% by weight, 0.8 ml into periodontal pocket, after toothbrushing three times a day for two weeks, one patient.

On to `CC(=O)N1C[C@H](O)C[C@H]1C(=O)O` [N-acetylhydroxyproline, N-acetyl-trans-4-hydroxy-L-proline], for which the “symptoms of alveolar pyorrhea” value in assay [1] is “remarkably improved”. Also, in the assay on alveolar pyorrhea (setting [2]), the “looseness of the tooth” value was “remarkably improved” and the “pain of alveolar pyorrhea” value is “completely disappeared”. Further, the “healthy state without pain or looseness of tooth (prevention of recurrence)” value in the assay on alveolar pyorrhea (thereafter continued toothbrushing with buffered saline (pH 7.0) containing 2.5% by weight, more than three minutes three times a day) is listed as “could be maintained”.

(Values after US20080102042A1, “Oral Composition” (KYOWA HAKKO KOGYO CO., LTD., priority 2004, published 2008).)
